Data as given in ChEMBL document CHEMBL1201862, “PubChem BioAssay data set” (2004).
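Assay format: 96-well plates, 48-hour exposure. At the GI50, growth is halved.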 Activity calls are given as the source filed them. Rule as the data show it: active = GI50 up to about 1.1 µM and inactive = higher.

Experiments:
Assay in all cases: NCI anticancer screen, dose series, 48 h
786-0 = system: 786-0
A549 = system: A549
ACHN = system: ACHN
CAKI-1 = system: CAKI-1
CCRF-CEM = system: CCRF-CEM
COLO 205 = system: COLO 205
DLD-1 = system: DLD-1
DMS-114 = system: DMS-114
DMS-273 = system: DMS-273
EKVX = system: EKVX
HCC 2998 = system: HCC 2998
HCT-116 = system: HCT-116
HCT-15 = system: HCT-15
HOP-18 = system: HOP-18
HOP-62 = system: HOP-62
HOP-92 = system: HOP-92
IGROV-1 = system: IGROV-1
K562 = system: K562
KM-20L2 = system: KM-20L2
KM12 = system: KM12
LOX IMVI = system: LOX IMVI
LXFL 529 = system: LXFL 529
M14 = system: M14
M19-MEL = system: M19-MEL
MOLT-4 = system: MOLT-4
Malme-3M = system: Malme-3M
NCI-H226 = system: NCI-H226
NCI-H23 = system: NCI-H23
NCI-H522 = system: NCI-H522
OVCAR-3 = system: OVCAR-3
OVCAR-4 = system: OVCAR-4
OVCAR-5 = system: OVCAR-5
OVCAR-8 = system: OVCAR-8
RXF 393 = system: RXF 393
RXF 631 = system: RXF 631
SF-268 = system: SF-268
SF-295 = system: SF-295
SF-539 = system: SF-539
SK-MEL-28 = system: SK-MEL-28
SK-MEL-2 = system: SK-MEL-2
SK-MEL-5 = system: SK-MEL-5
SK-OV-3 = system: SK-OV-3
SN12C = system: SN12C
SNB-19 = system: SNB-19
SNB-75 = system: SNB-75
SNB-78 = system: SNB-78
SW-620 = system: SW-620
TK-10 = system: TK-10
U-251 = system: U-251
UACC-257 = system: UACC-257
UO-31 = system: UO-31
XF498 = system: XF498
A498 = system: A498
HL-60 = system: HL-60
HT-29 = system: HT-29
NCI-H460 = system: NCI-H460
RPMI-8226 = system: RPMI-8226
SR = system: SR
UACC-62 = system: UACC-62

Nc1ccc(Nc2nc(F)nc(-c3c4ccccc4c4n3CCS4)n2)cc1
GI50 (786-0): 15.7 µM (inactive)
GI50 (A549): 10.5 µM (inactive)
GI50 (ACHN): 12.7 µM (inactive)
GI50 (CAKI-1): 11 µM (inactive)
GI50 (CCRF-CEM): 6.56 µM (inactive)
GI50 (COLO 205): 19.1 µM (inactive)
GI50 (DLD-1): 16.7 µM (inactive)
GI50 (DMS-114): 17.1 µM (inactive)
GI50 (DMS-273): 10.4 µM (inactive)
GI50 (EKVX): 18.1 µM (inactive)
GI50 (HCC 2998): 22 µM (inactive)
GI50 (HCT-116): 14.6 µM (inactive)
GI50 (HCT-15): 10.1 µM
GI50 (HOP-18): 13.8 µM (inactive)
GI50 (HOP-62): 16 µM (inactive)
GI50 (HOP-92): 6.18 µM (inactive)
GI50 (IGROV-1): 12.4 µM (inactive)
GI50 (K562): > 10 µM (inactive)
GI50 (KM-20L2): 18.1 µM (inactive)
GI50 (KM12): 10.9 µM (inactive)
GI50 (LOX IMVI): 10.4 µM (inactive)
GI50 (LXFL 529): 14.9 µM (inactive)
GI50 (M14): 17 µM (inactive)
GI50 (M19-MEL): 16.5 µM (inactive)
GI50 (MOLT-4): 11.2 µM (inactive)
GI50 (Malme-3M): 14.5 µM (inactive)
GI50 (NCI-H226): 11.6 µM (inactive)
GI50 (NCI-H23): 16.2 µM (inactive)
GI50 (NCI-H522): 14 µM (inactive)
GI50 (OVCAR-3): 19.3 µM (inactive)
GI50 (OVCAR-4): 15 µM (inactive)
GI50 (OVCAR-5): 17.6 µM (inactive)
GI50 (OVCAR-8): 16.8 µM (inactive)
GI50 (RXF 393): 16 µM (inactive)
GI50 (RXF 631): 15 µM (inactive)
GI50 (SF-268): 15.7 µM (inactive)
GI50 (SF-295): 15.7 µM (inactive)
GI50 (SF-539): 13.4 µM (inactive)
GI50 (SK-MEL-28): 15.8 µM (inactive)
GI50 (SK-MEL-2): 14.1 µM (inactive)
GI50 (SK-MEL-5): 13.1 µM (inactive)
GI50 (SK-OV-3): 15.3 µM (inactive)
GI50 (SN12C): 15.5 µM (inactive)
GI50 (SNB-19): 15.4 µM (inactive)
GI50 (SNB-75): 14.9 µM (inactive)
GI50 (SNB-78): 36.1 µM (inactive)
GI50 (SW-620): 13 µM (inactive)
GI50 (TK-10): 19.6 µM (inactive)
GI50 (U-251): 14.7 µM (inactive)
GI50 (UACC-257): > 10 µM (inactive)
GI50 (UO-31): 8.38 µM (inactive)
GI50 (XF498): 4.91 µM (inactive)

O=C(O)COc1ccc(C(=O)/C(SS/C(C(=O)c2ccc(OCC(=O)O)c(Cl)c2Cl)=C2\C=C(c3ccccc3Cl)SS2)=C2/C=C(c3ccccc3Cl)SS2)c(Cl)c1Cl
GI50 (786-0): 19.8 µM (inactive)
GI50 (A498): 34.7 µM (inactive)
GI50 (A549): 46.8 µM (inactive)
GI50 (ACHN): 23.5 µM (inactive)
GI50 (CAKI-1): 39.4 µM (inactive)
GI50 (CCRF-CEM): 13 µM (inactive)
GI50 (COLO 205): 17.6 µM (inactive)
GI50 (DLD-1): 25 µM (inactive)
GI50 (DMS-114): 9.73 µM (inactive)
GI50 (DMS-273): 25.6 µM (inactive)
GI50 (EKVX): 40.6 µM (inactive)
GI50 (HCC 2998): 57.1 µM (inactive)
GI50 (HCT-116): 18 µM (inactive)
GI50 (HCT-15): 21.7 µM
GI50 (HL-60): 2.59 µM (inactive)
GI50 (HOP-18): 24.1 µM (inactive)
GI50 (HOP-62): 72.1 µM (inactive)
GI50 (HOP-92): 7.89 µM (inactive)
GI50 (HT-29): 21.7 µM (inactive)
GI50 (IGROV-1): 21.3 µM (inactive)
GI50 (K562): 8.91 µM (inactive)
GI50 (KM-20L2): 49.8 µM (inactive)
GI50 (KM12): 31.2 µM (inactive)
GI50 (LOX IMVI): 9.89 µM (inactive)
GI50 (LXFL 529): 5.5 µM (inactive)
GI50 (M14): 28.2 µM (inactive)
GI50 (M19-MEL): 28.5 µM (inactive)
GI50 (MOLT-4): 21.9 µM (inactive)
GI50 (Malme-3M): 53.8 µM (inactive)
GI50 (NCI-H226): 17.7 µM (inactive)
GI50 (NCI-H23): 22 µM (inactive)
GI50 (NCI-H460): 21.8 µM (inactive)
GI50 (NCI-H522): 3.27 µM (inactive)
GI50 (OVCAR-3): 17.9 µM (inactive)
GI50 (OVCAR-4): 19.8 µM (inactive)
GI50 (OVCAR-5): > 70.3 µM (inactive)
GI50 (OVCAR-8): 23.7 µM (inactive)
GI50 (RPMI-8226): 18.3 µM (inactive)
GI50 (RXF 631): 25.5 µM (inactive)
GI50 (SF-268): 22 µM (inactive)
GI50 (SF-295): 37.5 µM (inactive)
GI50 (SF-539): 11.8 µM (inactive)
GI50 (SK-MEL-28): 20.6 µM (inactive)
GI50 (SK-MEL-2): 23.2 µM (inactive)
GI50 (SK-MEL-5): 18.3 µM (inactive)
GI50 (SK-OV-3): 44.1 µM (inactive)
GI50 (SN12C): 30.6 µM (inactive)
GI50 (SNB-19): 22.6 µM (inactive)
GI50 (SNB-75): 35.1 µM (inactive)
GI50 (SNB-78): 16.9 µM (inactive)
GI50 (SR): 2.23 µM (inactive)
GI50 (SW-620): 25.5 µM (inactive)
GI50 (TK-10): 33.3 µM (inactive)
GI50 (U-251): 6.61 µM (inactive)
GI50 (UACC-257): 48.8 µM (inactive)
GI50 (UACC-62): 23.1 µM (inactive)
GI50 (UO-31): 24.3 µM (inactive)
GI50 (XF498): 13.6 µM (inactive)
